Source: patent US7750012B2, “Biaryl nitrogen-heterocycle inhibitors of LTA4H for treating inflammation” (deCODE genetics ehf, priority 2005, dated 2010)
Counter-ions that a name gives are not always drawn.

How the values were obtained:
[1] = molecular target: T1, purified recombinant human LTA4 hydrolase (hLTA4H) (Homo sapiens, UniProt P09960); test: In vitro assay testing inhibitory activity against purified recombinant human LTA4 hydrolase; assay type: biochemical; conditions: 200 nM recombinant enzyme, 2 μM LTA4, LTB4 measured by LC-MS/MS
T1 construct: A human LTA4 hydrolase full-length cDNA clone (NM_000895) was purchased from OriGene Technologies; own knowledge: pDEST17 adds an N-terminal 6xHis; made in house; host or cells: Escherichia coli BL21-AI
T1 sequence (P09960 1-611): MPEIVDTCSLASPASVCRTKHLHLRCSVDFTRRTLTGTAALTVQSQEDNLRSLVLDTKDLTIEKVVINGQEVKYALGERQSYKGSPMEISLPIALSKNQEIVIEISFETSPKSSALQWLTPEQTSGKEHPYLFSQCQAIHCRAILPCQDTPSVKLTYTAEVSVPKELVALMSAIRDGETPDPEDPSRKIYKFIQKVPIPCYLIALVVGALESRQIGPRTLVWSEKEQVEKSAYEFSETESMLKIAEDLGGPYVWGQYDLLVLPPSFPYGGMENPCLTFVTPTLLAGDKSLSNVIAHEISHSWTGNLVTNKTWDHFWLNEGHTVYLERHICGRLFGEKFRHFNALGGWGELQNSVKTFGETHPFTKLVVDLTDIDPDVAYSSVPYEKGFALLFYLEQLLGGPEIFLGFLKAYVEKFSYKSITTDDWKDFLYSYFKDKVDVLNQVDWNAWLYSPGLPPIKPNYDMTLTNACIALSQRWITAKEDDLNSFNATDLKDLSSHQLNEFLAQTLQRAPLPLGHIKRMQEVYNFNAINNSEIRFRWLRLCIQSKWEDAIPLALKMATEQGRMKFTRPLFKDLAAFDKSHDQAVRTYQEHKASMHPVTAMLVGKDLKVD
Description: (1) In Vitro Assay Testing Inhibitory Activity Against Purified Recombinant Human LTA4 Hydroase:
The gene was amplified by polmerase chain reaction and transferred via pDONR201 into the bacterial expression vector pDEST17 by recombination (both plasmids from Invitrogen, Carlsbad, Calif.). The resulting construct was transformed into Escherichia coli BL21-AI (Invitrogen), and expression was induced by chemical induction with arabinose. The recombinant enzyme was purified by chromatography on a FPLC system (Amersham Biosciences, Uppsala, Sweden) using immobilized metal affinity chromatography (Ni-NTA Superflow, Qiagen, Hilden, Germany) and anion exchange chromatography (MonoQ HR 10/10, Amersham Biosciences).
The compounds of the invention were incubated in a series of dilutions with 200 nM of recombinant enzyme in assay buffer (100 mM Tris-HCl, 100 mM NaCl, 5 mg/ml fatty-acid free BSA, 10% DMSO, pH 8.0) for 10 min at room temperature to allow binding between LTA4 hydrolase and the inhibitors. LTA4 was prepared by alkaline hydrolysis of LTA4 methyl ester (Biomol, Plymouth Meeting, Pa., or Cayman Chemicals, Ann Arbor, Mich.). A solution of 10 μg of the ester was dried under a nitrogen stream and redissolved in 60 μl of a solution of 80% aceton and 20% 0.25 M NaOH.
After incubation for 40 min at room temperature the resulting approximately 500 μM tock of LTA4 was kept at −80° C. for no more than a few days prior to use.
Immediately before the assay, LTA4 was diluted to a concentration of 10 μM in assay buffer (without DMSO) and added to the reaction mixture to a final concentration of 2 μM to initiate the enzyme reaction. […] The samples were then kept at 4° C. over night to complete protein precipitation and centrifuged for 15 min at 1800 g. LTB4 formed was measured by LC-MS/MS using LTB4-d4 as an internal standard and an external LTB4 standard (Biomol) as reference.

colitis symptoms = conditions: eight weeks of treatment, spontaneous colitis; cited from earlier work
[2] = system: ionophore-induced LTB4 production; conditions: oral administration; cited from earlier work
[3] = system: ionophore-induced LTB4 production; conditions: oral administration; cited from earlier work; remark: listed apart in the source

SMILES	IC50 [1] [µM]	other results
FC(F)(F)c1ccc(Oc2ccc(N3CCNCC3)cc2)cc1 [Example 20, 1-[4-(4-Trifluoromethyl-phenoxy)-phenyl]-piperazine]	< 5	
c1ccc(Cc2ccc(N3CCNCC3)cc2)cc1 [Example 4, 1-(4-Benzyl-phenyl)-piperazine hydrochloride]	< 5	
O=C(O)CCCN1CCN(c2ccc(Nc3ccccc3)cc2)CC1 [Example 3, 4-[4-(4-phenylamino-phenyl)-piperazin-1-yl]-butyric acid sodium salt]	5 to 20	
Cc1ccc(Oc2ccc(N3CCNCC3)cc2)cc1 [Example 18, 1-(4-p-Tolyloxy-phenyl]-piperazine]	< 5	
Ic1ccc(Oc2ccc(N3CCOCC3)cc2)cc1 [Example 24, 4-[4-(4-Iodo-phenoxy)-phenyl]-morpholine]	< 5	
c1cc(-c2ccc(Oc3ccc(N4CCOCC4)cc3)cc2)cs1 [Example 25, 4-[4-(4-Thiophen-3-yl-phenoxy)-phenyl]-morpholine]	< 5	
COc1ccc(Oc2ccc(N3CCNCC3)cc2)cc1 [Example 17, 1-[4-(4-Methoxy-phenoxy)-phenyl]-piperazine]	5 to 20	
c1cc(-c2ccc(Oc3ccc(N4CCNCC4)cc3)cc2)cs1 [Example 23, 1-[4-(4-Thiophen-3yl-phenoxy)-phenyl]-piperazine hydrochloride]	< 5	
CN(CCCOc1ccc(Cc2ccccc2)cc1)CCC(=O)O.Cl [SC57461]		colitis symptoms in a primate model (colitis symptoms): significantly improved colitis symptoms; inhibition of ionophore-induced LTB4 production in rat peritoneum in vivo [2]: inhibition of ionophore-induced LTB4 production; inhibition of ionophore-induced LTB4 production in mouse blood ex vivo [3]: inhibition of ionophore-induced LTB4 production
Ic1ccc(Oc2ccc(N3CCNCC3)cc2)cc1 [Example 14, 1-[4-(4-Iodo-phenoxy)-phenyl]-piperazine hydrochloride]	< 5	
Clc1ccc(-c2ccc(Oc3ccc(N4CCNCC4)cc3)cc2)s1 [Example 26, hydrochloride]	5 to 20	

More lines, main results first:

IC50 [1] [µM]	SMILES	other results
< 5	COC(=O)CCCN1CCN(c2ccc(Cc3ccccc3)cc2)CC1 [Example 5, 4-[4-(4-Benzyl-phenyl)-piperazin-1-yl]-butyric acid methyl ester]	
< 5	O=C(O)CCN1CCN(c2ccc(Oc3ccc(-c4ccsc4)cc3)cc2)CC1 [Example 16, 3-{4[4-(4-Thiophen-3-yl-phenoxy)-phenyl]-piperazin-1-yl}-propionic acid sodium salt]	
< 5	CC(=O)N1CCN(c2ccc(Oc3ccccc3)cc2)CC1 [Example 21, 1-[4-(4-Phenoxy-phenyl)-piperazin-1-yl]-ethanone]	
< 5	O=C(O)CCCN1CCN(c2ccc(Cc3ccccc3)cc2)CC1 [Example 6, 4-[4-(4-Benzyl-phenyl)-piperazin-1-yl]-butyric acid sodium salt]	
5 to 20	NC1CCN(c2ccc(Oc3ccccc3)cc2)CC1 [Example 12, 1-(4-Phenoxy-phenyl)-piperidin-4-ylamine hydrochloride]	
< 5	O=C(O)CCN1CCN(c2ccc(Cc3ccccc3)cc2)CC1 [Example 7, 3-[4-(4-Benzyl-phenyl)-piperazin-1-yl]-propionic acid sodium salt]	
< 5	O=C(O)CCCN1CCN(c2ccc(Oc3ccc(I)cc3)cc2)CC1 [Example 15, 4-{4-[4-(4-Iodo-phenoxy)-phenyl]-piperazin-1-yl]-butyric acid sodium salt]	
